Experiment: Turbidity assay for solubility of the peptides
Type: physicochemical
Settings: solubility of the antigenic peptides in water or Dimethyl Sulfoxide (DMSO)
Method: A number of antigenic peptides of the invention were synthesized by chemical synthesis as described in Section 5.1.1.
A turbidity assay was used to assess the solubility of the peptides. Turbidity assays used either a Varian Cary double-beam spectrophotometer, or a Molecular Devices Spectromax absorbance plate reader (for high throughput experiments). The spectrophotometer assay read every 2 nm between 340 nm and 360 nm, and averaged the values. Samples were analyzed in duplicate using a quartz micro-cuvette that holds about 200 uL. The plate reader assay used a 96-well plate format that read every 4 nm between 340 nm and 360 nm and averaged those values. Samples in this assay were run in triplicate.
For `CC(C)C[C@H](NC(=O)[C@H](C)NC(=O)[C@H](CCCNC(=N)N)NC(=O)[C@@H](NC(=O)[C@@H](NC(=O)[C@H](Cc1c[nH]cn1)NC(=O)CNC(=O)CNC(=O)[C@H](CC(C)C)NC(=O)[C@H](CO)NC(=O)[C@H](CC(C)C)NC(=O)[C@H](CO)NC(=O)[C@H](CCCNC(=N)N)NC(=O)[C@@H]1CCCN1C(=O)[C@H](C)NC(=O)[C@@H](NC(=O)[C@H](CCCNC(=N)N)NC(=O)[C@@H]1CCCN1C(=O)[C@H](CC(N)=O)NC(=O)CN)[C@@H](C)O)[C@@H](C)O)C(C)C)C(=O)N[C@@H](CO)C(=O)N1CCC[C@H]1C(=O)N[C@H](C(=O)N1CCC[C@H]1C(=O)N1CCC[C@H]1C(=O)N[C@@H](Cc1c[nH]c2ccccc12)C(=O)N1CCC[C@H]1C(=O)NCC(=O)N[C@H](C(=O)N[C@@H](CC(=O)O)C(=O)N[C@@H](CC(=O)O)C(=O)N[C@@H](CCC(=O)O)C(=O)N[C@@H](CC(=O)O)C(=O)N[C@@H](CC(=O)O)C(=O)N[C@@H](CC(=O)O)C(=O)O)[C@@H](C)O)[C@@H](C)O` [RL02-1], the Solubility was “water”. With `CC[C@H](C)[C@H](NC(=O)[C@@H]1CCCN1C(=O)[C@H](CC(C)C)NC(=O)[C@H](Cc1ccc(O)cc1)NC(=O)[C@@H](N)CCCNC(=N)N)C(=O)N[C@@H](C)C(=O)NCC(=O)N[C@H](C(=O)N[C@@H](CO)C(=O)N[C@@H](CO)C(=O)N[C@H](C(=O)N[C@H](C(=O)N[C@@H](C)C(=O)N[C@@H](CC(C)C)C(=O)N[C@@H](C)C(=O)N1CCC[C@H]1C(=O)N[C@@H](Cc1ccc(O)cc1)C(=O)N[C@H](C(=O)N[C@@H](CC(N)=O)C(=O)N[C@@H](CCCCN)C(=O)N[C@H](C(=O)N[C@H](C(=O)N[C@H](C(=O)NCC(=O)N[C@@H](CC(=O)O)C(=O)N[C@@H](CS)C(=O)N[C@@H](CC(C)C)C(=O)N1CCC[C@H]1C(=O)N[C@H](C(=O)N[C@@H](CC(C)C)C(=O)N[C@@H](CC(=O)O)C(=O)N[C@@H](CCSC)C(=O)N[C@@H](CCC(=O)O)C(=O)N[C@H](C(=O)NCC(=O)O)[C@@H](C)O)C(C)C)[C@@H](C)O)C(C)C)[C@@H](C)O)C(C)C)C(C)C)C(C)C)C(C)C` [RL02-2] the Solubility was “DMSO”. For `CSCC[C@H](NC(=O)[C@H](C)N)C(=O)N[C@@H](CO)C(=O)N[C@@H](CCCNC(=N)N)C(=O)N[C@@H](CCCNC(=N)N)C(=O)N[C@@H](Cc1ccc(O)cc1)C(=O)N[C@@H](CC(=O)O)C(=O)N[C@@H](CCCNC(=N)N)C(=O)N[C@@H](C)C(=O)N[C@@H](CCC(N)=O)C(=O)N[C@@H](CCCCN)C(=O)NCC(=O)N[C@@H](Cc1ccccc1)C(=O)N[C@@H](CC(C)C)C(=O)N[C@@H](CC(C)C)C(=O)N[C@H](C(=O)N[C@@H](CO)C(=O)N[C@@H](CC(C)C)C(=O)N[C@@H](CCCNC(=N)N)C(=O)N[C@@H](CCCNC(=N)N)C(=O)N[C@@H](C)C(=O)N[C@@H](Cc1ccc(O)cc1)C(=O)N[C@@H](C)C(=O)N1CCC[C@H]1C(=O)N[C@@H](CC(C)C)C(=O)N[C@@H](CC(C)C)C(=O)N[C@@H](C)C(=O)N[C@@H](CCCNC(=N)N)C(=O)N[C@@H](CCC(=O)O)C(=O)N[C@@H](CC(N)=O)C(=O)N[C@@H](C)C(=O)N[C@@H](C)C(=O)N[C@@H](CC(C)C)C(=O)N[C@H](C(=O)NCC(=O)O)[C@@H](C)O)[C@@H](C)O` [RS01-2], the Solubility was “water”. For `CSCC[C@H](NC(=O)[C@H](Cc1ccccc1)NC(=O)[C@H](C)NC(=O)CNC(=O)[C@@H](NC(=O)[C@H](Cc1ccccc1)NC(=O)[C@H](CCCNC(=N)N)NC(=O)[C@@H]1CCCN1C(=O)[C@H](CC(=O)O)NC(=O)[C@H](CCC(N)=O)NC(=O)[C@@H](NC(=O)[C@H](CO)NC(=O)[C@@H](NC(=O)CNC(=O)[C@@H](N)CCC(=O)O)C(C)C)[C@@H](C)O)C(C)C)C(=O)N[C@@H](C)C(=O)N[C@@H](C)C(=O)N[C@@H](CCCCN)C(=O)N[C@@H](C)C(=O)N[C@@H](C)C(=O)N[C@@H](Cc1c[nH]cn1)C(=O)N[C@@H](CC(C)C)C(=O)N[C@@H](CCC(=O)O)C(=O)N[C@@H](CC(C)C)C(=O)N[C@@H](CCC(=O)O)C(=O)N[C@@H](C)C(=O)N[C@@H](CCCNC(=N)N)C(=O)N[C@@H](CC(C)C)C(=O)N[C@@H](CCCCN)C(=O)N[C@@H](CO)C(=O)N[C@@H](CCCNC(=N)N)C(=O)N[C@@H](C)C(=O)N[C@@H](CCCNC(=N)N)C(=O)N[C@@H](CC(C)C)C(=O)N[C@@H](CCC(=O)O)C(=O)O` [UL14-1], the Solubility was “water”. With `CC[C@H](C)[C@H](NC(=O)[C@H](CCCCN)NC(=O)[C@@H](N)C(C)C)C(=O)N[C@@H](CCCNC(=N)N)C(=O)N[C@H](C(=O)N[C@@H](CCC(=O)O)C(=O)N[C@@H](CCC(=O)O)C(=O)N[C@@H](CCC(N)=O)C(=O)N[C@@H](C)C(=O)N[C@@H](C)C(=O)N[C@@H](CCCNC(=N)N)C(=O)N[C@@H](CCCNC(=N)N)C(=O)N[C@@H](CC(=O)O)C(=O)N[C@@H](Cc1ccccc1)C(=O)N[C@@H](CC(C)C)C(=O)N[C@H](C(=O)N[C@@H](C)C(=O)N[C@@H](Cc1c[nH]cn1)C(=O)N[C@@H](CCCNC(=N)N)C(=O)N[C@@H](CCCNC(=N)N)C(=O)N[C@@H](Cc1ccc(O)cc1)C(=O)N[C@@H](CC(C)C)C(=O)N[C@@H](CC(=O)O)C(=O)N1CCC[C@H]1C(=O)N[C@@H](C)C(=O)N[C@@H](CC(C)C)C(=O)N[C@@H](CO)C(=O)N[C@@H](CCC(=O)O)C(=O)N[C@@H](CCCNC(=N)N)C(=O)N[C@@H](CC(C)C)C(=O)N[C@@H](CC(=O)O)C(=O)N[C@@H](C)C(=O)N[C@@H](C)C(=O)N[C@@H](CC(=O)O)C(=O)N[C@@H](CC(=O)O)C(=O)O)[C@@H](C)O)C(C)C` [UL14-2] the Solubility was “water”. For `CSCC[C@H](NC(=O)[C@H](CC(C)C)NC(=O)[C@H](CC(N)=O)NC(=O)[C@H](CCC(=O)O)NC(=O)[C@H](CC(C)C)NC(=O)[C@H](CC(C)C)NC(=O)[C@@H](NC(=O)[C@@H]1CCCN1C(=O)[C@H](Cc1ccccc1)NC(=O)[C@H](CCCNC(=N)N)NC(=O)[C@H](CCCNC(=N)N)NC(=O)[C@@H](NC(=O)[C@@H](NC(=O)[C@H](CCC(=O)O)NC(=O)CNC(=O)[C@@H](N)CC(C)C)C(C)C)[C@@H](C)O)C(C)C)C(=O)N[C@@H](CCCNC(=N)N)C(=O)N[C@@H](C)C(=O)N[C@@H](CC(C)C)C(=O)N[C@@H](CCC(=O)O)C(=O)NCC(=O)N[C@H](C(=O)N[C@@H](C)C(=O)N1CCC[C@H]1C(=O)N[C@@H](CC(=O)O)C(=O)N[C@@H](C)C(=O)N[C@@H](Cc1ccccc1)C(=O)N[C@@H](Cc1ccccc1)C(=O)N[C@@H](Cc1c[nH]cn1)C(=O)N[C@H](C(=O)N[C@@H](C)C(=O)N[C@@H](Cc1ccc(O)cc1)C(=O)N[C@@H](C)C(=O)N[C@@H](CC(C)C)C(=O)N[C@@H](C)C(=O)O)[C@@H](C)O)[C@@H](C)O` [UL17-2], the Solubility was “water”. With `CC[C@H](C)[C@H](NC(=O)[C@@H](NC(=O)[C@H](CC(=O)O)NC(=O)[C@H](CCCNC(=N)N)NC(=O)[C@H](C)N)C(C)C)C(=O)N[C@@H](CCCNC(=N)N)C(=O)N[C@@H](CCC(=O)O)C(=O)N[C@H](C(=O)N[C@@H](CC(=O)O)C(=O)N[C@@H](C)C(=O)N[C@@H](Cc1ccccc1)C(=O)N[C@@H](Cc1ccc(O)cc1)C(=O)NCC(=O)N[C@@H](CC(=O)O)C(=O)N[C@@H](CC(C)C)C(=O)N[C@@H](C)C(=O)N[C@@H](CC(=O)O)C(=O)N[C@@H](CC(C)C)C(=O)N[C@@H](CC(=O)O)C(=O)N[C@@H](CC(C)C)C(=O)N[C@@H](CCC(N)=O)C(=O)N[C@@H](CC(C)C)C(=O)N[C@@H](CCCNC(=N)N)C(=O)N[C@@H](C)C(=O)N[C@@H](C)C(=O)N1CCC[C@H]1C(=O)N1CCC[C@H]1C(=O)N[C@@H](C)C(=O)N[C@@H](CC(N)=O)C(=O)N[C@@H](CC(C)C)C(=O)N[C@@H](Cc1ccc(O)cc1)C(=O)N[C@@H](C)C(=O)N[C@@H](CCCNC(=N)N)C(=O)N[C@@H](CC(C)C)C(=O)NCC(=O)O)[C@@H](C)O` [UL36-4] the Solubility was “DMSO”. In the case of `CSCC[C@H](NC(=O)[C@H](CCCNC(=N)N)NC(=O)[C@H](Cc1c[nH]cn1)NC(=O)[C@@H](NC(=O)[C@H](CC(C)C)NC(=O)[C@H](CC(C)C)NC(=O)CNC(=O)[C@@H]1CCCN1C(=O)[C@H](CC(C)C)NC(=O)[C@H](CC(N)=O)NC(=O)[C@H](CCC(=O)O)NC(=O)[C@H](C)NC(=O)[C@H](CC(C)C)NC(=O)[C@H](CC(C)C)NC(=O)[C@H](C)NC(=O)[C@@H](NC(=O)[C@H](CCC(=O)O)NC(=O)[C@@H]1CCCN1C(=O)[C@@H](N)CC(C)C)[C@@H](C)O)C(C)C)C(=O)N[C@@H](C)C(=O)N[C@H](C(=O)N[C@@H](C)C(=O)N[C@@H](CC(C)C)C(=O)N1CCC[C@H]1C(=O)N[C@@H](CCC(=O)O)C(=O)N[C@H](C(=O)N1CCC[C@H]1C(=O)N[C@@H](CCC(=O)O)C(=O)N[C@@H](C)C(=O)N[C@@H](C)C(=O)N[C@@H](Cc1ccccc1)C(=O)N[C@@H](CCCNC(=N)N)C(=O)N[C@@H](CCC(=O)O)C(=O)N[C@@H](CCSC)C(=O)N[C@@H](CC(=O)O)C(=O)O)[C@@H](C)O)C(C)C` [UL37-1], the Solubility is reported as “DMSO”. In the case of `CC[C@H](C)[C@H](NC(=O)[C@H](Cc1ccc(O)cc1)NC(=O)[C@H](C)NC(=O)[C@H](Cc1ccc(O)cc1)NC(=O)CNC(=O)[C@H](CC(C)C)NC(=O)[C@H](C)NC(=O)[C@H](CCCNC(=N)N)NC(=O)[C@H](CC(C)C)NC(=O)[C@@H](NC(=O)[C@H](CCCNC(=N)N)NC(=O)[C@@H](NC(=O)[C@H](CS)NC(=O)[C@H](Cc1ccccc1)NC(=O)[C@H](CC(C)C)NC(=O)[C@H](Cc1c[nH]cn1)NC(=O)[C@H](C)NC(=O)[C@H](CC(C)C)NC(=O)[C@H](CCCNC(=N)N)NC(=O)[C@H](CC(C)C)NC(=O)[C@H](C)NC(=O)[C@@H]1CCCN1C(=O)[C@H](CCCCN)NC(=O)[C@H](CO)NC(=O)[C@@H]1CCCN1C(=O)[C@H](C)NC(=O)CNC(=O)[C@H](CO)NC(=O)[C@@H]1CCCN1C(=O)[C@H](C)NC(=O)[C@H](C)N)[C@@H](C)CC)C(C)C)C(=O)N[C@@H](CC(N)=O)C(=O)N[C@@H](CO)C(=O)NCC(=O)N[C@@H](CCC(N)=O)C(=O)O` [UL41-1], the Solubility is reported as “water”.
